# Where two headings read alike, the source gives them in different places.
# How the values were obtained:
# Experiment in all cases: Cell viability assay (MTT), dark and blue light
# Type in all cases: cell-based, Human
# [1] = system: C4-2B prostate cancer cells (PSMA-positive); conditions: for Photosensitizing index (PI): dark vs blue light
# Method in brief: (§1)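 Two parallel arms: continuous 72 h dark exposure, or 8 h preincubation followed by 10 min blue light at 458 nm (9.6 W LEDs) and further dark incubation to 72 h. Final DMSO 0.1% (v/v); MTT formazan read at 570 nm, triplicate runs repeated at least three times.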
# [2] = system: 22rV1 prostate cancer cells (PSMA-positive); conditions: for Photosensitizing index (PI): 22Rv1, dark vs blue light
# Method in brief: as §1
# [3] = system: DU-145 prostate cancer cells (PSMA-negative); conditions: for Photosensitizing index (PI): DU145, dark vs blue light; for SI (vs MC3T3) DU145 Blue / SI (vs NIH-3T3) DU145 Blue: blue light 458 nm
# Method in brief: as §1
# [4] = system: MiaPaCa2 pancreas cancer cells; conditions: for Photosensitizing index (PI): MiaPaCa2, dark vs blue light; for GI50: read-out: GI50
# Method in brief: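 Viability determined by MTT assay (A570) after 72 h treatment in 0.1% DMSO, with or without a 10 min irradiation at 8 h. Data from at least three independent experiments run in triplicate.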
# [5] = system: MGHU3 bladder cancer cells; conditions: for Photosensitizing index (PI) MGHU3: dark vs blue light 458 nm; for SI (vs NIH-3T3) MGHU3 Blue / SI (vs MC3T3) MGHU3 Blue: blue light 458 nm
# Method in brief: as §1
# Hela cervix cancer cells = conditions: for SI (vs MC3T3) HeLa Blue: blue light 458 nm; for Photosensitizing index (PI) HeLa: dark vs blue light 458 nm
# Method in brief: as §1
# [6] = 8 h in the dark, blue light 458 nm 10 min, then dark up to 72 h, read-out: GI50 C4-2b Blue
# [7] = C4-2b, blue light, read-out: GI50
# [8] = in the dark, 72 h, read-out: GI50 C4-2b Dark
# [9] = 22Rv1, blue light, read-out: GI50
# [10] = 8 h in the dark, blue light 458 nm 10 min, then dark up to 72 h, read-out: GI50 22Rv1 Blue
# [11] = in the dark, 72 h, read-out: GI50 22Rv1 Dark
# [12] = 8 h in the dark, blue light 458 nm 10 min, then dark up to 72 h, read-out: GI50 DU145 Blue
# [13] = DU145, blue light, read-out: GI50
# [14] = in the dark, 72 h, read-out: GI50 DU145 Dark
# [15] = 8 h in the dark, blue light 458 nm 10 min, then dark up to 72 h, read-out: GI50 MGHU3 Blue
# [16] = in the dark, 72 h, read-out: GI50 MGHU3 Dark
# [17] = 8 h in the dark, blue light 458 nm 10 min, then dark up to 72 h, read-out: GI50 HeLa Blue
# [18] = in the dark, 72 h, read-out: GI50 HeLa Dark
compound,measurement,setting,value
F[P-](F)(F)(F)(F)F.O=C(O)CC[C@H](NC(=O)N[C@@H](CCCCNC(=O)CCn1cc[n+]2[c]1[Ir-3]13([c]4c(sc5ccccc45)-c4cccc[n+]41)([c]1c(sc4ccccc14)-c1cccc[n+]13)[n+]1ccccc1-2)C(=O)O)C(=O)O [III-j],GI50,[1]; [6],0.52 µM
same,GI50,[1]; [7],0.52 µM
same,Photosensitizing index (PI),[1]; C4-2b,21.7
same,GI50,"[1]; C4-2b, dark, read-out: GI50",11.3 µM
same,SI (vs MC3T3) C4-2b Blue,[1]; blue light 458 nm,24.0
same,SI (vs NIH-3T3) C4-2b Blue,[1]; blue light 458 nm,20.7
same,SI (vs MC3T3) C4-2b Dark,[1]; dark,>22.1
same,SI (vs NIH-3T3) C4-2b Dark,[1]; dark,>8.8
same,GI50,[1]; [8],11.3 µM
same,GI50,[2]; [9],0.28 µM
same,Photosensitizing index (PI),[2],35.4
same,GI50,"[2]; 22Rv1, dark, read-out: GI50",9.9 µM
same,GI50,[2]; [10],0.28 µM
same,SI (vs MC3T3) 22Rv1 Blue,[2]; blue light 458 nm,44.0
same,SI (vs NIH-3T3) 22Rv1 Blue,[2]; blue light 458 nm,38.0
same,SI (vs NIH-3T3) 22Rv1 Dark,[2]; dark,>10.1
same,GI50,[2]; [11],9.9 µM
same,GI50,[3]; [12],1.4 µM
same,GI50,[3]; [13],1.35 µM
same,Photosensitizing index (PI),[3],151.9
same,GI50,"[3]; DU145, dark, read-out: GI50",205 µM
same,SI (vs MC3T3) DU145 Blue,[3],9.3
same,SI (vs NIH-3T3) DU145 Blue,[3],8.0
same,SI (vs MC3T3) DU145 Dark,[3]; dark,>1.2
same,GI50,[3]; [14],205 µM
F[P-](F)(F)(F)(F)F.O=C(NCCCn1cc[n+]2[c]1[Ir-3]13([c]4ccccc4-c4sc5ccccc5[n+]41)([c]1ccccc1-c1sc4ccccc4[n+]13)[n+]1ccccc1-2)[c-]1cccc1.[Fe+2].c1cc[cH-]c1 [IV-k],Photosensitizing index (PI),[4],6.9
same,SI (vs MC3T3),"[4]; MiapaCa2, blue light",15.9
same,SI (vs NIH-3T3),"[4]; MiapaCa2, blue light",36.3
same,GI50,"[4]; MiapaCa2, blue light",0.32 µM
same,SI (vs NIH-3T3),"[4]; MiapaCa2, dark",8.5
same,GI50,"[4]; MiapaCa2, dark",2.2 µM
F[P-](F)(F)(F)(F)F.O=C(CCCC[C@@H]1SC[C@@H]2NC(=O)N[C@@H]21)NCCCn1cc[n+]2[c]1[Ir-3]13([c]4ccccc4-c4c5ccccc5cc[n+]41)([c]1ccccc1-c1c4ccccc4cc[n+]13)[n+]1ccccc1-2 [I-h],GI50,[5]; [15],1.6 µM
same,SI (vs MC3T3) MGHU3 Dark,[5]; dark,1.8
same,Photosensitizing index (PI) MGHU3,[5],16.7
same,GI50,[5]; [16],26.7 µM
same,GI50,Hela cervix cancer cells; [17],2.86 µM
same,SI (vs MC3T3) HeLa Blue,Hela cervix cancer cells,1.7
same,SI (vs MC3T3) HeLa Dark,Hela cervix cancer cells,1.0
same,SI (vs NIH-3T3) HeLa Dark,Hela cervix cancer cells,2.4
same,Photosensitizing index (PI) HeLa,Hela cervix cancer cells,14.6
same,GI50,Hela cervix cancer cells; [18],41.8 µM
F[P-](F)(F)(F)(F)F.O=C(NCCCn1cc[n+]2[c]1[Ir-3]13([c]4ccccc4-c4c5ccccc5cc[n+]41)([c]1ccccc1-c1c4ccccc4cc[n+]13)[n+]1ccccc1-2)[c-]1cccc1.[Fe+2].c1cc[cH-]c1 [IV-h],Photosensitizing index (PI),[4],24.6
same,SI (vs MC3T3),"[4]; MiapaCa2, blue light",86.2
same,SI (vs NIH-3T3),"[4]; MiapaCa2, blue light",63.8
same,SI (vs NIH-3T3),"[4]; MiapaCa2, dark",7.8
same,GI50,"[4]; MiapaCa2, dark",1.7 µM
F[P-](F)(F)(F)(F)F.O=C(CCCC[C@@H]1SC[C@@H]2NC(=O)N[C@@H]21)NCCCn1cc[n+]2[c]1[Ir-3]13([c]4ccccc4-c4ccc5ccccc5[n+]41)([c]1ccccc1-c1ccc4ccccc4[n+]13)[n+]1ccccc1-2 [I-g],GI50,[5]; [15],4.3 µM
same,SI (vs NIH-3T3) MGHU3 Blue,[5],14.3
same,SI (vs MC3T3) MGHU3 Dark,[5]; dark,2.2
same,Photosensitizing index (PI) MGHU3,[5],5.9
same,GI50,[5]; [16],25.4 µM
same,GI50,Hela cervix cancer cells; [17],10.8 µM
same,SI (vs MC3T3) HeLa Dark,Hela cervix cancer cells,1.2
same,Photosensitizing index (PI) HeLa,Hela cervix cancer cells,4.1
same,GI50,Hela cervix cancer cells; [18],44.3 µM
COC(=O)c1ccc2[n+](c1)[Ir-3]13([c]4ccccc4-2)([c]2ccccc2-c2ccc(C(=O)OC)c[n+]21)[c]1n(CCCNC(=O)CCCC[C@@H]2SC[C@@H]4NC(=O)N[C@@H]42)cc[n+]1-c1cccc[n+]13.F[P-](F)(F)(F)(F)F [I-e],GI50,[5]; [15],17.8 µM
same,SI (vs MC3T3) MGHU3 Blue,[5],2.3
same,SI (vs NIH-3T3) MGHU3 Blue,[5],7.8
same,SI (vs MC3T3) MGHU3 Dark,[5]; dark,<1
same,SI (vs NIH-3T3) MGHU3 Dark,[5]; dark,>2.5
same,Photosensitizing index (PI) MGHU3,[5],>5.6
same,GI50,[5]; [16],> 100 µM
same,GI50,Hela cervix cancer cells; [17],59 µM
same,SI (vs MC3T3) HeLa Blue,Hela cervix cancer cells,0.7
same,SI (vs MC3T3) HeLa Dark,Hela cervix cancer cells,0.3
same,SI (vs NIH-3T3) HeLa Dark,Hela cervix cancer cells,>1.1
same,Photosensitizing index (PI) HeLa,Hela cervix cancer cells,3.7
same,GI50,Hela cervix cancer cells; [18],221 µM
F[P-](F)(F)(F)(F)F.O=C(NCCCn1cc[n+]2[c]1[Ir-3]13([c]4c(sc5ccccc45)-c4cccc[n+]41)([c]1c(sc4ccccc14)-c1cccc[n+]13)[n+]1ccccc1-2)[c-]1cccc1.[Fe+2].c1cc[cH-]c1 [IV-j],Photosensitizing index (PI),[4],21.9
same,SI (vs MC3T3),"[4]; MiapaCa2, blue light",24.4
same,SI (vs MC3T3),"[4]; MiapaCa2, dark",4.7
same,SI (vs NIH-3T3),"[4]; MiapaCa2, dark",17.9
F[P-](F)(F)(F)(F)F.O=C(CCCC[C@@H]1SC[C@@H]2NC(=O)N[C@@H]21)NCCCn1cc[n+]2[c]1[Ir-3]13([c]4ccccc4-c4sc5ccccc5[n+]41)([c]1ccccc1-c1sc4ccccc4[n+]13)[n+]1ccccc1-2 [I-k],GI50,[5]; [15],2.9 µM
same,SI (vs MC3T3) MGHU3 Blue,[5],6.8
same,SI (vs NIH-3T3) MGHU3 Blue,[5],10.7
same,Photosensitizing index (PI) MGHU3,[5],15.9
same,GI50,[5]; [16],46.1 µM
same,GI50,Hela cervix cancer cells; [17],6.5 µM
same,SI (vs NIH-3T3) HeLa Dark,Hela cervix cancer cells,1.5
same,Photosensitizing index (PI) HeLa,Hela cervix cancer cells,7.8
same,GI50,Hela cervix cancer cells; [18],50.6 µM
F[P-](F)(F)(F)(F)F.O=C(NCCCn1cc[n+]2[c]1[Ir-3]13([c]4cccc5ccc6ccc[n+]1c6c45)([c]1cccc4ccc5ccc[n+]3c5c14)[n+]1ccccc1-2)[c-]1cccc1.[Fe+2].c1cc[cH-]c1 [IV-i],Photosensitizing index (PI),[4],5.1
same,SI (vs NIH-3T3),"[4]; MiapaCa2, blue light",48.1
same,GI50,"[4]; MiapaCa2, blue light",0.37 µM
F[P-](F)(F)(F)(F)F.O=C(O)CC[C@H](NC(=O)N[C@@H](CCCCNC(=O)CCn1cc[n+]2[c]1[Ir-3]13([c]4cccc5ccc6ccc[n+]1c6c45)([c]1cccc4ccc5ccc[n+]3c5c14)[n+]1ccccc1-2)C(=O)O)C(=O)O [III-i],GI50,[1]; [6],2.7 µM
same,GI50,[1]; [7],2.69 µM
same,Photosensitizing index (PI),[1]; C4-2b,5.5
same,GI50,"[1]; C4-2b, dark, read-out: GI50",14.8 µM
same,SI (vs NIH-3T3) C4-2b Blue,[1]; blue light 458 nm,20.7
same,SI (vs NIH-3T3) C4-2b Dark,[1]; dark,>6.7
same,GI50,[1]; [8],14.8 µM
same,GI50,[2]; [9],1.96 µM
same,Photosensitizing index (PI),[2],6.4
same,GI50,"[2]; 22Rv1, dark, read-out: GI50",12.5 µM
same,GI50,[2]; [10],2 µM
same,SI (vs MC3T3) 22Rv1 Blue,[2]; blue light 458 nm,20.7
same,SI (vs MC3T3) 22Rv1 Dark,[2]; dark,20.0
same,SI (vs NIH-3T3) 22Rv1 Dark,[2]; dark,>8
same,GI50,[2]; [11],12.5 µM
same,GI50,[3]; [12],8.2 µM
same,GI50,[3]; [13],8.16 µM
same,Photosensitizing index (PI),[3],5.6
same,GI50,"[3]; DU145, dark, read-out: GI50",45.3 µM
same,SI (vs MC3T3) DU145 Blue,[3],5.0
same,SI (vs NIH-3T3) DU145 Blue,[3],6.8
same,SI (vs NIH-3T3) DU145 Dark,[3]; dark,>2.2
same,GI50,[3]; [14],45.3 µM

# From US20260209260A1, “VECTORIZED NHC IRIDIUM(III) COMPLEXES AND USE THEREOF IN PHOTODYNAMIC THERAPY AND/OR DIAGNOSTIC” (CENTRE NATIONAL DE LA RECHERCHE SCIENTIFIQUE, priority 2022, published 2026)
